According to US10041105B2, “Methods and devices for detection of resistance to an enzyme inhibitor” (priority 2014, dated 2018):

Key:
[1] = tested on: SHV-2 beta lactamase (Escherichia coli); type: biochemical
Procedure: (§1) The reagent mix was prepared as a 2× concentrated solution. The 2× concentrated reagent mix contained 50 mM HEPES (pH 7.0 to 7.2), 0.2 mM ZnCl2, 8 mM ATP, 10 mM DTT, 0.1 mM Coenzyme A, 5 micrograms/mL luciferase, 0.01 mM Cephalosporin-O-Luciferin, 0.1 mg/mL BSA, 8 mM CaCl2, 30 mM MgCl2, and 1% Triton X-100. Cephalosporin-O-Luciferin was used as a beta lactamase substrate. This substrate was synthesized and purified according to a procedure published in a scientific article (Angew. Chem. Int. Ed. 2007 Vol. 46, pp. 7031-7034), which is cited here solely as a reference.
(§2) Genes encoding five species of beta lactamase were synthesized and cloned into an E. coli expression vector. The E. coli cells transformed with the expression vector containing the gene encoding a beta lactamase was induced to express the enzyme. The cells were then pelleted, suspended in a sample buffer (Fisher Scientific Cat. No. 90084) and sonicated to lyse the cells.
(§3) 2× concentrated reagent mixes were prepared. The 2× reagent mix without a beta lactamase inhibitor or antibiotic (Reagent Mix I) was prepared according to the composition provided in Example 6. The 2× concentrated reagent mix containing a beta lactamase inhibitor or imipenem (Reagent Mix IIb) was prepared by supplementing the Reagent Mix I with 64 micrograms/mL of clavulanate (Reagent Mix IIa) or 64 micrograms/mL of imipenem (Reagent Mix IIb).
(§4) Reactions were carried out by diluting 50 microliters of 2× reagent mixes into 45 microliters of deionized water, followed by addition of 5 microliters of cell lysate. […] Light signal was measured using a luminometer after 15 min incubation at room temperature. The signal in Reagent Mix I was used to detect the presence of beta lactamase in the sample by comparing the signal in the reaction to that of negative controls while the signal ratio was used to determine the resistance of the beta lactamase to clavulanate or imipenem.
(§5) In this example, the signal ratios were expressed as R-Factor values, which were calculated as follows: R-Factor=10×(Reagent Mix II Signal÷Reagent Mix I Signal)

SHV-2 beta lactamase = SHV-2 beta lactamase (Escherichia coli, UniProt P0A9Z7); type: biochemical
Sequence of SHV-2 beta lactamase (P0A9Z7 22-286): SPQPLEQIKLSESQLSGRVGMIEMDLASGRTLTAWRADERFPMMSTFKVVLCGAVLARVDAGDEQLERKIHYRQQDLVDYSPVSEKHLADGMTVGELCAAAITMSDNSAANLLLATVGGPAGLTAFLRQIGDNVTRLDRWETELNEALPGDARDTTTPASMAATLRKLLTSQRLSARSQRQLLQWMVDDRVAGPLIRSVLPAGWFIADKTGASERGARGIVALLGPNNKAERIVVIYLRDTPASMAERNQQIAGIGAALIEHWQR
Procedure: as §1, §2, §3, §4, §5

p99 beta lactamase = p99 beta lactamase (Enterobacter cloacae, UniProt P05364); type: biochemical
Sequence of p99 beta lactamase (P05364 21-381): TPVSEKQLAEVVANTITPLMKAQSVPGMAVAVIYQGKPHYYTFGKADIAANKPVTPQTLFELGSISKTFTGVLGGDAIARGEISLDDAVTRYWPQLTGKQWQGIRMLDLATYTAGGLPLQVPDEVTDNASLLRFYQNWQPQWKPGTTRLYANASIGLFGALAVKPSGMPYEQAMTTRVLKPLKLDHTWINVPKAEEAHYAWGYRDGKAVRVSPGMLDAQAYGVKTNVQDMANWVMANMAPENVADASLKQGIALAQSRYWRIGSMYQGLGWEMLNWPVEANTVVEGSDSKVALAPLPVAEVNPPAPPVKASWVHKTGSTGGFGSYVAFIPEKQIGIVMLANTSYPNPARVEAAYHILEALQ
Procedure: as §1, §2, §3, §4, §5

KPC-2 beta lactamase = KPC-2 beta lactamase (Klebsiella pneumoniae, UniProt Q9F663); test: Beta lactamase luminescent assay with inhibitor reagent mixes; type: biochemical; conditions: 64 micrograms/mL in 2× mix, lysate dilution 1:10
Sequence of KPC-2 beta lactamase (Q9F663 25-293 limits assumed): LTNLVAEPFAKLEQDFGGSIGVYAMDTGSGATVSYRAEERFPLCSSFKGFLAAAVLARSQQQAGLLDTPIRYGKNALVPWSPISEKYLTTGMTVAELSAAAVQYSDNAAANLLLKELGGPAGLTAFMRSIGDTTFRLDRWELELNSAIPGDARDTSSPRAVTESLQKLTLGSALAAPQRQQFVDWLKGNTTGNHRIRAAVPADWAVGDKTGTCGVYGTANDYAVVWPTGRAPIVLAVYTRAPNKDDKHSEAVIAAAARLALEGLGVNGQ
Procedure: as §1, §2, §3, §4, §5

[2] = biological target: New Deli Metallo-beta lactamase (NDM-2) (Klebsiella pneumoniae, UniProt C7C422, P28A); test: as above; type: biochemical; conditions: 64 micrograms/mL in 2× mix, lysate dilution 1:2
Sequence of New Deli Metallo-beta lactamase (NDM-2) (C7C422 29-270 P28A (numbered from the first residue shown)): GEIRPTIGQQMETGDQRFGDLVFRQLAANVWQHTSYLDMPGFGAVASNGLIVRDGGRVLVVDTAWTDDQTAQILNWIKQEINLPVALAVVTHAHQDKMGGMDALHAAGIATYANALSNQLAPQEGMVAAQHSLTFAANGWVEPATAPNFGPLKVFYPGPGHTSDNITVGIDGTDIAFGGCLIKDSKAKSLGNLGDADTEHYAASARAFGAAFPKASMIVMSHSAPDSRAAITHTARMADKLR
Procedure: as §1, §2, §3, §4, §5

TEM-2 beta lactamase = TEM-2 beta lactamase (Escherichia coli, UniProt P62593, Q37K); test: as above; type: biochemical
Procedure: as §1, §2, §3, §4, §5

[3] = tested on: beta lactamase of patient isolate colony; test: Clavulanate resistance using a single bacterial colony
Procedure: (§6) As described in EXAMPLE 7, the assay consisted of two reagents, Reagent Mix I and Reagent Mix II, where Reagent Mix I contained one master mix without clavulanate while Reagent Mix II contained a master mix with clavulanate. In this example, reagent mixes equivalent to 0.25 mL of the master mixes were lyophilized in test tubes.
(§7) Patient samples were cultured overnight on an agar plate. A single colony was suspended in 2.5 mL sample buffer as described in EXAMPLE 7, of which 0.25 mL was added to Reagent Mixes I and II vials. After incubation at room temperature for 15 min, the reagent vials were inserted into a luminometer for signal measurement.

[4] = tested on: beta lactamase of patient isolate colony; test: as above; remark: listed apart in the source
Procedure: as §6, §7

[5] = tested on: beta lactamase of patient isolate colony; test: as above; remark: listed apart in the source
Procedure: as §6, §7

[6] = tested on: beta lactamase of patient isolate colony; test: as above; remark: listed apart in the source
Procedure: as §6, §7

Sequence of SHV-2 beta lactamase (Escherichia coli) (P0A9Z7 22-286): as the sequence (P0A9Z7 22-286) above

SMILES: O=C(O)[C@H]1/C(=C/CO)O[C@@H]2CC(=O)N21 [Clavulanate, clavulanate]
- R-Factor [1]: 0.23
- S/N (Signal to Noise Ratio) in inhibitor-containing reagent mix (SHV-2 beta lactamase): 1.00
- resistance of the beta lactamase to the substance (SHV-2 beta lactamase): susceptible
- S/N (Signal to Noise Ratio) in inhibitor-containing reagent mix (p99 beta lactamase): 48.00
- R-Factor (KPC-2 beta lactamase): 8.94
- S/N (Signal to Noise Ratio) in inhibitor-containing reagent mix (KPC-2 beta lactamase; 15 min): 40.00
- R-Factor (KPC-2 beta lactamase; listed as clavulanate): high
- R-Factor [2]: 6.02
- S/N (Signal to Noise Ratio) in inhibitor-containing reagent mix ([2]; 15 min): 13.00
- R-Factor ([2]; listed as clavulanate): high
- R-Factor (TEM-2 beta lactamase; 64 micrograms/mL in 2× mix, lysate undiluted): 1.18
- S/N (Signal to Noise Ratio) in inhibitor-containing reagent mix (TEM-2 beta lactamase; 64 micrograms/mL in 2× mix, lysate undiluted, 15 min): 5.00
- resistance of the beta lactamase to the substance (TEM-2 beta lactamase; judged from R-Factor): susceptible
- Interpretation ([3]; No. 1, Sample ID 1845): susceptible to CA (CA (clavulanate) resistance cutoff R-Factor value: 2.50)
- R-Factor ([3]; No. 1, Sample ID 1845): 0.07
- Interpretation ([3]; No. 2, Sample ID 1847): susceptible to CA (CA (clavulanate) resistance cutoff R-Factor value: 2.50)
- R-Factor ([3]; No. 2, Sample ID 1847): 0.15
- Interpretation ([3]; No. 20, Sample ID B650): susceptible to CA (CA (clavulanate) resistance cutoff R-Factor value: 2.50)
- R-Factor ([3]; No. 20, Sample ID B650): 0.11
- Interpretation ([3]; No. 21, Sample ID B671): resistant to CA (CA (clavulanate) resistance cutoff R-Factor value: 2.50)
- R-Factor ([3]; No. 21, Sample ID B671): 4.12
- Interpretation ([4]; No. 3, Sample ID 1820): resistant to CA (CA (clavulanate) resistance cutoff R-Factor value: 2.50)
- R-Factor ([4]; No. 3, Sample ID 1820): 3.67
- Interpretation ([4]; No. 7, Sample ID 1789): susceptible to CA (CA (clavulanate) resistance cutoff R-Factor value: 2.50)
- R-Factor ([4]; No. 7, Sample ID 1789): 1.14
- Interpretation ([4]; No. 8, Sample ID 1800): resistant to CA (CA (clavulanate) resistance cutoff R-Factor value: 2.50)
- R-Factor ([4]; No. 8, Sample ID 1800): 11.13
- Interpretation ([4]; No. 13, Sample ID 1962-2): resistant to CA (CA (clavulanate) resistance cutoff R-Factor value: 2.50)
- R-Factor ([4]; No. 13, Sample ID 1962-2): 15.47
- Interpretation ([4]; No. 14, Sample ID 1963): resistant to CA (CA (clavulanate) resistance cutoff R-Factor value: 2.50)
- R-Factor ([4]; No. 14, Sample ID 1963): 19.95
- Interpretation ([5]; No. 5, Sample ID B612): susceptible to CA (CA (clavulanate) resistance cutoff R-Factor value: 2.50)
- R-Factor ([5]; No. 5, Sample ID B612): 0.27
- Interpretation ([5]; No. 6, Sample ID B616): susceptible to CA (CA (clavulanate) resistance cutoff R-Factor value: 2.50)
- R-Factor ([5]; No. 6, Sample ID B616): 0.13
- Interpretation ([6]; No. 17, Sample ID 2015): susceptible to CA (CA (clavulanate) resistance cutoff R-Factor value: 2.50)
- R-Factor ([6]; No. 17, Sample ID 2015): 1.74
- Interpretation ([6]; No. 18, Sample ID 2022-1): susceptible to CA (CA (clavulanate) resistance cutoff R-Factor value: 2.50)
- R-Factor ([6]; No. 18, Sample ID 2022-1): 1.31
